# Results from US8030478B2, “Method for nucleic acid replication and novel artificial base pairs” (priority 2005, dated 2011).
# Read-outs that look alike come from different tables or passages of the source.
# Molecular target: T7 RNA polymerase (Escherichia phage T7, UniProt P00573)
# Details: for Composition of nucleotide incorporated as 5′ neighbor of U: Ap / Composition of nucleotide incorporated as 5′ neighbor of U: Gp / Composition of nucleotide incorporated as 5′ neighbor of U: Np (Dsp) / Composition of nucleotide incorporated as 5′ neighbor of U: Up / Composition of nucleotide incorporated as 5′ neighbor of U: Cp: [α-32P]UTP; for Composition of nucleotide incorporated as 5′ neighbor of A: Up / Composition of nucleotide incorporated as 5′ neighbor of A: Np (Dsp) / Composition of nucleotide incorporated as 5′ neighbor of A: Ap / Composition of nucleotide incorporated as 5′ neighbor of A: Gp / Composition of nucleotide incorporated as 5′ neighbor of A: Cp: [α-32P]ATP; for Composition of nucleotide incorporated as 5′ neighbor of A: Cp: theoretical [7]
# [1] = Entry 14, template temp35Pa-4, natural NTP 1 mM, Ds 1 mM, theoretical [0]
# [2] = Entry 14, template temp35Pa-4, natural NTP 1 mM, Ds 1 mM, theoretical [1]
# [3] = Entry 15, template temp35Pa-4, natural NTP 1 mM, Ds 3 mM, theoretical [0]
# [4] = Entry 15, template temp35Pa-4, natural NTP 1 mM, Ds 3 mM, theoretical [1]
# [5] = Entry 16, template temp35Pa′-4, natural NTP 1 mM, Ds 1 mM, theoretical [0]
# [6] = Entry 16, template temp35Pa′-4, natural NTP 1 mM, Ds 1 mM, theoretical [1]
# [7] = Entry 17, template temp35Pa′-4, natural NTP 1 mM, Ds 3 mM, theoretical [0]
# [8] = Entry 17, template temp35Pa′-4, natural NTP 1 mM, Ds 3 mM, theoretical [1]
# [9] = Entry 18, template temp35C-4, natural NTP 1 mM, Ds 1 mM, theoretical [0]
# [10] = Entry 18, template temp35C-4, natural NTP 1 mM, Ds 1 mM, theoretical [1]
# [11] = Entry 19, template temp35C-4, natural NTP 1 mM, Ds 3 mM, theoretical [0]
# [12] = Entry 19, template temp35C-4, natural NTP 1 mM, Ds 3 mM, theoretical [1]
# [13] = Entry 20, template temp35T-4, natural NTP 1 mM, Ds 1 mM, theoretical [0]
# [14] = Entry 20, template temp35T-4, natural NTP 1 mM, Ds 1 mM, theoretical [1]
# [15] = Entry 21, template temp35T-4, natural NTP 1 mM, Ds 3 mM, theoretical [0]
# [16] = Entry 21, template temp35T-4, natural NTP 1 mM, Ds 3 mM, theoretical [1]
# [17] = Entry 29, template DNA14, natural NTP 2 mM, Ds 2 mM, theoretical [6]
# [18] = Entry 31, template DNAcont4, natural NTP 2 mM, Ds 2 mM, theoretical [6]
# [19] = Entry 36, template DNA13, natural NTP 2 mM, Ds 2 mM, theoretical [4]
# [20] = Entry 37, template DNA14, natural NTP 2 mM, Ds 2 mM, theoretical [4]
# [21] = Entry 39, template DNAcont4, natural NTP 2 mM, Ds 2 mM, theoretical [4]
# Method: Transcription (20 μl) was accomplished in 40 mM Tris-HCl buffer (pH 8.0) containing 24 mM MgCl2, 2 mM spermidine, 5 mM DTT, 0.01% Triton X-100, 1-3 mM each natural NTP, 0-3 mM Pa′TP, 0-3 mM DsTP, 10 mM GMP, 2 μM template DNA (for 17-mer transcript synthesis) or 0.5 μM template DNA (for tRNA transcript synthesis), and 2.5 units/μl T7 RNA polymerase (TAKARA). […] For nucleotide composition analysis in transcripts (Non-patent Documents 17 and 33), the transcripts were internally labeled with 2 μCi [α-^32P]UTP or [α-^32P]ATP (Amersham). After the transcription, the products were digested with 0.75 units of RNase T2 at 37° C. for 2 hours in 10 μl of 15 mM sodium acetate buffer (pH 4.5). For 17-mer analysis, 0.05 A260 units of E. coli tRNA (Sigma) was added to the digestion reaction solution. The digestion products were analyzed by 2D-TLC (HPTLC plate, 100×100 mm, Merck). The developing solvents used for the first and second dimensions were isobutyric acid-ammonia-water (66:1:33 v/v/v) and isopropyl alcohol-HCl-water (70:15:15 v/v/v or 75:15:10 v/v/v for Pa′ transcripts), respectively. Spots of the labeled nucleotides on the TLC plate were analyzed with a bio-imaging analyzer.
# The internally ^32P-labeled transcripts were digested with Rnase T2, and the resulting labeled nucleoside 3′-monophosphates were analyzed by 2D thin-layer chromatography (2D-TLC).
# Chain of T7 RNA polymerase (P00573 whole entry): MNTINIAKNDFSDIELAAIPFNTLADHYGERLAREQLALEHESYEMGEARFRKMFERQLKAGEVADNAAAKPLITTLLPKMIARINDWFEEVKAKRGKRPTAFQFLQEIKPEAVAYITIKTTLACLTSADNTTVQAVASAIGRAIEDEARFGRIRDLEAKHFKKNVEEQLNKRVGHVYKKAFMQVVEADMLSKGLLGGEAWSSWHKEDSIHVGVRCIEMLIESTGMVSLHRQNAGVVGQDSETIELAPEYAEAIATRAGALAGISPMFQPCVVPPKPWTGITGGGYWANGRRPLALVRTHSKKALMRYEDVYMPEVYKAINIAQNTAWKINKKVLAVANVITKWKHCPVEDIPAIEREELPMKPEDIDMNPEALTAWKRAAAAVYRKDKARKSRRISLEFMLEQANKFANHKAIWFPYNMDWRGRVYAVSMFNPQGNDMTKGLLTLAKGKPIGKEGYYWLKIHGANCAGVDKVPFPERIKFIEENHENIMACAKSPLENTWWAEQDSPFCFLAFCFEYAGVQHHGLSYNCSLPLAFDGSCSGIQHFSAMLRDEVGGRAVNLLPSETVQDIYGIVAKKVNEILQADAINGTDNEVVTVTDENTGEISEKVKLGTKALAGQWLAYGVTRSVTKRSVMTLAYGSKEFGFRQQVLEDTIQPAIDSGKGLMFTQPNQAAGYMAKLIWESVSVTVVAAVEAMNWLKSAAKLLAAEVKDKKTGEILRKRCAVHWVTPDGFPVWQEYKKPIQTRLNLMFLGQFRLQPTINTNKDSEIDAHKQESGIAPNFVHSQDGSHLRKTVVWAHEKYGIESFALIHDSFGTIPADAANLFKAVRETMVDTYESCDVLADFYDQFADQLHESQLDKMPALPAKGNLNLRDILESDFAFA
smiles,measurement,setting,value
"O=P(O)(O)OP(=O)(O)OP(=O)(O)OC[C@H]1O[C@@H](n2cnc3c(-c4cccs4)ccnc32)[C@H](O)[C@@H]1O [DsTP, 7-(2-Thienyl)-3-(β-D-ribofuranosyl)-3H-imidazo[4,5-b]pyridine 5′-triphosphate]",Composition of nucleotide incorporated as 5′ neighbor of U: Ap,[1],0.02 [0]
same,Composition of nucleotide incorporated as 5′ neighbor of U: Gp,[1],n.d. [0]
same,Composition of nucleotide incorporated as 5′ neighbor of U: Np (Dsp),[2],0.98 [1]
same,Composition of nucleotide incorporated as 5′ neighbor of U: Up,[2],1.00 [1]
same,Composition of nucleotide incorporated as 5′ neighbor of U: Cp,"Entry 14, template temp35Pa-4, natural NTP 1 mM, Ds 1 mM, theoretical [2]",1.99 [2]
same,Composition of nucleotide incorporated as 5′ neighbor of U: Ap,[3],0.01 [0]
same,Composition of nucleotide incorporated as 5′ neighbor of U: Gp,[3],n.d. [0]
same,Composition of nucleotide incorporated as 5′ neighbor of U: Np (Dsp),[4],0.99 [1]
same,Composition of nucleotide incorporated as 5′ neighbor of U: Up,[4],1.01 [1]
same,Composition of nucleotide incorporated as 5′ neighbor of U: Cp,"Entry 15, template temp35Pa-4, natural NTP 1 mM, Ds 3 mM, theoretical [2]",1.99 [2]
same,Composition of nucleotide incorporated as 5′ neighbor of U: Ap,[5],0.05 [0]
same,Composition of nucleotide incorporated as 5′ neighbor of U: Gp,[5],n.d. [0]
same,Composition of nucleotide incorporated as 5′ neighbor of U: Np (Dsp),[6],0.94 [1]
same,Composition of nucleotide incorporated as 5′ neighbor of U: Up,[6],1.02 [1]
same,Composition of nucleotide incorporated as 5′ neighbor of U: Cp,"Entry 16, template temp35Pa′-4, natural NTP 1 mM, Ds 1 mM, theoretical [2]",1.98 [2]
same,Composition of nucleotide incorporated as 5′ neighbor of U: Ap,[7],0.02 [0]
same,Composition of nucleotide incorporated as 5′ neighbor of U: Gp,[7],n.d. [0]
same,Composition of nucleotide incorporated as 5′ neighbor of U: Np (Dsp),[8],0.96 [1]
same,Composition of nucleotide incorporated as 5′ neighbor of U: Up,[8],1.02 [1]
same,Composition of nucleotide incorporated as 5′ neighbor of U: Cp,"Entry 17, template temp35Pa′-4, natural NTP 1 mM, Ds 3 mM, theoretical [2]",1.99 [2]
same,Composition of nucleotide incorporated as 5′ neighbor of U: Ap,[9],0.01 [0]
same,Composition of nucleotide incorporated as 5′ neighbor of U: Np (Dsp),[9],n.d. [0]
same,Composition of nucleotide incorporated as 5′ neighbor of U: Gp,[10],0.98 [1]
same,Composition of nucleotide incorporated as 5′ neighbor of U: Up,[10],1.00 [1]
same,Composition of nucleotide incorporated as 5′ neighbor of U: Cp,"Entry 18, template temp35C-4, natural NTP 1 mM, Ds 1 mM, theoretical [2]",2.01 [2]
same,Composition of nucleotide incorporated as 5′ neighbor of U: Ap,[11],0.01 [0]
same,Composition of nucleotide incorporated as 5′ neighbor of U: Np (Dsp),[11],n.d. [0]
same,Composition of nucleotide incorporated as 5′ neighbor of U: Gp,[12],0.97 [1]
same,Composition of nucleotide incorporated as 5′ neighbor of U: Up,[12],1.00 [1]
same,Composition of nucleotide incorporated as 5′ neighbor of U: Cp,"Entry 19, template temp35C-4, natural NTP 1 mM, Ds 3 mM, theoretical [2]",2.03 [2]
same,Composition of nucleotide incorporated as 5′ neighbor of U: Gp,[13],n.d. [0]
same,Composition of nucleotide incorporated as 5′ neighbor of U: Np (Dsp),[13],n.d. [0]
same,Composition of nucleotide incorporated as 5′ neighbor of U: Ap,[14],0.99 [1]
same,Composition of nucleotide incorporated as 5′ neighbor of U: Up,[14],1.02 [1]
same,Composition of nucleotide incorporated as 5′ neighbor of U: Cp,"Entry 20, template temp35T-4, natural NTP 1 mM, Ds 1 mM, theoretical [2]",1.99 [2]
same,Composition of nucleotide incorporated as 5′ neighbor of U: Gp,[15],n.d. [0]
same,Composition of nucleotide incorporated as 5′ neighbor of U: Np (Dsp),[15],n.d. [0]
same,Composition of nucleotide incorporated as 5′ neighbor of U: Ap,[16],0.99 [1]
same,Composition of nucleotide incorporated as 5′ neighbor of U: Up,[16],1.01 [1]
same,Composition of nucleotide incorporated as 5′ neighbor of U: Cp,"Entry 21, template temp35T-4, natural NTP 1 mM, Ds 3 mM, theoretical [2]",2.00 [2]
same,Composition of nucleotide incorporated as 5′ neighbor of A: Up,"Entry 28, template DNA13, natural NTP 2 mM, Ds 2 mM, theoretical [0]",0.05 [0]
same,Composition of nucleotide incorporated as 5′ neighbor of A: Np (Dsp),"Entry 28, template DNA13, natural NTP 2 mM, Ds 2 mM, theoretical [1]",0.96 [1]
same,Composition of nucleotide incorporated as 5′ neighbor of A: Ap,"Entry 28, template DNA13, natural NTP 2 mM, Ds 2 mM, theoretical [5]",5.04 [5]
same,Composition of nucleotide incorporated as 5′ neighbor of A: Gp,"Entry 28, template DNA13, natural NTP 2 mM, Ds 2 mM, theoretical [6]",6.02 [6]
same,Composition of nucleotide incorporated as 5′ neighbor of A: Cp,"Entry 28, template DNA13, natural NTP 2 mM, Ds 2 mM",6.93 [7]
same,Composition of nucleotide incorporated as 5′ neighbor of A: Up,"Entry 29, template DNA14, natural NTP 2 mM, Ds 2 mM, theoretical [0]",0.03 [0]
same,Composition of nucleotide incorporated as 5′ neighbor of A: Np (Dsp),"Entry 29, template DNA14, natural NTP 2 mM, Ds 2 mM, theoretical [1]",0.96 [1]
same,Composition of nucleotide incorporated as 5′ neighbor of A: Ap,[17],6.13 [6]
same,Composition of nucleotide incorporated as 5′ neighbor of A: Gp,[17],5.96 [6]
same,Composition of nucleotide incorporated as 5′ neighbor of A: Cp,"Entry 29, template DNA14, natural NTP 2 mM, Ds 2 mM",6.93 [7]
same,Composition of nucleotide incorporated as 5′ neighbor of A: Np (Dsp),"Entry 31, template DNAcont4, natural NTP 2 mM, Ds 2 mM, theoretical [0]",0.02 [0]
same,Composition of nucleotide incorporated as 5′ neighbor of A: Up,"Entry 31, template DNAcont4, natural NTP 2 mM, Ds 2 mM, theoretical [1]",1.09 [1]
same,Composition of nucleotide incorporated as 5′ neighbor of A: Ap,[18],6.10 [6]
same,Composition of nucleotide incorporated as 5′ neighbor of A: Gp,[18],5.98 [6]
same,Composition of nucleotide incorporated as 5′ neighbor of A: Cp,"Entry 31, template DNAcont4, natural NTP 2 mM, Ds 2 mM",6.83 [7]
same,Composition of nucleotide incorporated as 5′ neighbor of U: Np (Dsp),"Entry 36, template DNA13, natural NTP 2 mM, Ds 2 mM, theoretical [0]",n.d. [0]
same,Composition of nucleotide incorporated as 5′ neighbor of U: Ap,"Entry 36, template DNA13, natural NTP 2 mM, Ds 2 mM, theoretical [2]",2.00 [2]
same,Composition of nucleotide incorporated as 5′ neighbor of U: Gp,[19],3.97 [4]
same,Composition of nucleotide incorporated as 5′ neighbor of U: Up,[19],4.03 [4]
same,Composition of nucleotide incorporated as 5′ neighbor of U: Cp,"Entry 36, template DNA13, natural NTP 2 mM, Ds 2 mM, theoretical [5]",4.99 [5]
same,Composition of nucleotide incorporated as 5′ neighbor of U: Np (Dsp),"Entry 37, template DNA14, natural NTP 2 mM, Ds 2 mM, theoretical [0]",0.01 [0]
same,Composition of nucleotide incorporated as 5′ neighbor of U: Ap,"Entry 37, template DNA14, natural NTP 2 mM, Ds 2 mM, theoretical [2]",1.99 [2]
same,Composition of nucleotide incorporated as 5′ neighbor of U: Cp,[20],4.02 [4]
same,Composition of nucleotide incorporated as 5′ neighbor of U: Gp,[20],3.91 [4]
same,Composition of nucleotide incorporated as 5′ neighbor of U: Up,[20],4.08 [4]
same,Composition of nucleotide incorporated as 5′ neighbor of U: Np (Dsp),"Entry 39, template DNAcont4, natural NTP 2 mM, Ds 2 mM, theoretical [0]",0.01 [0]
same,Composition of nucleotide incorporated as 5′ neighbor of U: Ap,"Entry 39, template DNAcont4, natural NTP 2 mM, Ds 2 mM, theoretical [2]",1.99 [2]
same,Composition of nucleotide incorporated as 5′ neighbor of U: Gp,[21],3.95 [4]
same,Composition of nucleotide incorporated as 5′ neighbor of U: Up,[21],4.05 [4]
same,Composition of nucleotide incorporated as 5′ neighbor of U: Cp,"Entry 39, template DNAcont4, natural NTP 2 mM, Ds 2 mM, theoretical [5]",5.01 [5]
